Measurements reported in patent US8304206B2, “Mass spectrometry assays for identifying compounds that activate deacetylases” (Sirtris Pharmaceuticals, Inc., priority 2005, dated 2012).
Where two headings read alike, the source gives them in different places. Each block holds one compound with its values, some of them ahead of it. No end group written: not given here.

Tests used:
[1] = biological target: T1, SIRT1 (Homo sapiens, UniProt Q96EB6); assay: DMSO tolerance of SIRT1 mass spectrometry assay; assay type: biochemical
T1 sequence (Q96EB6 1-747): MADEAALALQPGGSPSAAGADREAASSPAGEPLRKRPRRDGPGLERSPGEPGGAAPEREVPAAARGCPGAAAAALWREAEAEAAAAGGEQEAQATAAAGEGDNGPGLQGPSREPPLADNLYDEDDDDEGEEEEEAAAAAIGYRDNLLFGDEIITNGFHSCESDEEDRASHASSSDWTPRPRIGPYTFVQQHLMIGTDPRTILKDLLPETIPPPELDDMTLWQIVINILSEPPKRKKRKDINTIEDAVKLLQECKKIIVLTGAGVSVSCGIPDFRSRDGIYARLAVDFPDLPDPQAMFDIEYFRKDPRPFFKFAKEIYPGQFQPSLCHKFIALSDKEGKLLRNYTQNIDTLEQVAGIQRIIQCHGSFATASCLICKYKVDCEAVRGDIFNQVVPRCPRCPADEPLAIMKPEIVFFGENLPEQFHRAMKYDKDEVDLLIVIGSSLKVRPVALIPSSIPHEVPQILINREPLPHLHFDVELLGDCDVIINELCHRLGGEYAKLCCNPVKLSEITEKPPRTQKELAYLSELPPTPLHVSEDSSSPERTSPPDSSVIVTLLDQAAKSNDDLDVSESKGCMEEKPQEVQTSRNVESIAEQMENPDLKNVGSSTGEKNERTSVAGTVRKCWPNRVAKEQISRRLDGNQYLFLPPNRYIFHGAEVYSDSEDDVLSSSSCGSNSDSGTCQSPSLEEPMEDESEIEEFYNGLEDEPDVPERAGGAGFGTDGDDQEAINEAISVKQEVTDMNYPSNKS
Experimental: To determine the tolerance of the SIRT1 mass spectrometry assay for DMSO, a rate based experiment was performed at multiple concentrations of DMSO.
Formic acid (10 μL of 10%) was added to all of the wells in column 1 of the 96 well assay plate. Eight concentrations of DMSO (40%, 20%, 10%, 5.0%, 2.5%, 1.25%, 0.625%, and 0.313%) were prepared in buffer containing 50 mM Tris HCl pH 8.0, 137 mM, NaCl, 2.7 mM, KCl, 1 mM MgCl2, 5 mM DTT, and 0.05% BSA.
This DMSO titration was prepared by making a 2000 μL solution of 40% DMSO in 50 mM Tris HCl pH 8.0, 137 mM, NaCl, 2.7 mM, KCl, 1 mM MgCl2, 5 mM DTT, and 0.05%. BSA in well A1 of a Costar 2 mL 96 well Assay Block. Dilution Working Solution (1000 μL; 50 mM Tris HCl pH 8.0, 137 mM, NaCl, 2.7 mM, KCl, 1 mM MgCl2, 5 mM DTT, and 0.05% BSA) was added to wells B1, C1, D1, E1, F1, G1 and H1. 1000 μL of the 40% DMSO in buffer solution was transferred from A1 to […] and the solution was mixed 5 times. This process was repeated with wells in column 1 until well H1 was reached.
Using an 8 channel multi-pipette, 50 μl was transferred from column 1 of the 2 mL 96 well assay block to all columns of a 96 well assay plate.
25 μL of Enzyme Working Solution (40 nM SIRT1, 50 mM Tris HCl pH 8.0, 137 mM, NaCl, 2.7 mM, KCl, 1 mM MgCl2, 5 mM DTT, and 0.05% BSA) was prepared and added to each well of the 96-well round bottom assay plate. […]
At 0, 2, 5, 10, 15, 20, 25, 25, 30, 35, 40, 45, and 60 minutes, the reaction was stopped with 10% formic acid and the conversion of substrate to product was determined by mass spectrometry. The activity of SIRT1 at each concentration of DMSO was monitored by comparing the percent conversion of Acetylated Peptide Substrate to Deacetylated Peptide Product over time. […]
Product formation versus time was plotted for each concentration of DMSO tested. The rate was determined by taking the slope from the linear part of the time course. […]

[2] = test system: NCI-H358 cells; assay: Cellular ATP Assay (ATPLite 1Step normalized to AlamarBlue viability); assay type: cell-based, human; conditions: compounds that raised intracellular ATP levels, 48 hours, read-out: ED50 ATP ASSAY
Experimental: Cellular ATP levels are an indirect measurement of cellular metabolic rates and, by extension, mitochondrial function. […] The ATP assay is combined with a cellular viability assay so that cellular ATP levels can be normalized to viable cells. Cellular ATP levels were measured using the ATPLite 1Step Kit (PerkinElmer) and cellular viability was measured using the cell permeable dye, AlamarBlue™.
The Cellular ATP Assay is a multiplexed assay that measures both ATP levels and viability of a given cell sample. This assay is run in a 96-well Assay Plate and data are reported as the [ATP]/viability for each well in the Assay Plate.
The ATPLite 1Step™ Kit is a single-step luminescent cell-based assay for detection of ATP. The kit contains lyophilized substrate mixture, comprised of D-luciferin and the firefly (Photinus pyralis) enzyme luciferase. Additionally, the kit contains a detergent-based reconstitution buffer that induces the lysis of cellular membranes. The luciferase in the assay mixture catalyzes a reaction between the free cellular ATP and D-luciferin to produce bioluminescence according to the schematic reaction outlined below. […]
The AlamarBlue™ Assay is a single-step assay that utilizes a soluble, non-toxic, cell permeable dye that is added to cell growth media. […] The reduced dye product gives a fluorescent signal which can be monitored with a fluorescence plate reader (excitation 545 nm and emission 575 nm). The amount of fluorescence generated in a given well is proportional to the number of viable cells. […]
In this assay NCI-H358 cells (obtained from the American Tissue Culture Collection, ATCC) were seeded in 96 well microplates (10^4 cells/well). […] Cell microplates were incubated with dye for 2 hours under growth conditions, and fluorescence was subsequently measured using a plate reader. […] Luminescence was then measured using a plate reader. The ATP signal for each well, measured by the luminescence scan, was normalized to its corresponding cell viability value, measured by the fluorescence scan, to generate the average ATP level per viable cell unit (ATP/vCell). […]

[3] = biological target: T1, SIRT1; assay: SIRT1 mass spectrometry assay (screening for activation); assay type: biochemical
[4] = test system: NCI-H358 cells; assay: Western blot of mitochondrial mass biomarkers; assay type: cell-based, human; conditions: 48 hours; 0, 1, 10 or 100 uM
Experimental: Western blots were conducted to correlate an observed increase in cellular ATP levels upon exposure of cells to a sirtuin activating compound to an increase in mitochondrial mass. […] Cell lysates were then prepared and specific mitochondrial proteins were quantitated by western analysis using antibodies specific to the following proteins: Succinate-Ubiquinol Oxidoreductase (Mitochondrial Complex II Protein, mouse monoclonal, InVitrogen, Cat. #A11142); ATP synthase F1F0 (Mitochondrial Complex V Protein, mouse monoclonal, InVitrogen, Cat.# A21350); NADH-Ubiquinol Oxidoreductase (Mitochondrial Complex I Protein, mouse monoclonal, InVitrogen, Cat. #A21344). Normalization was to alpha tubulin using a rabbit polyclonal (Santa Cruz Biotech, Cat # SC-9104). Secondary antibody used for specific protein detection was AlexaFluor 680 conjugated […] IgG (Goat) (Rockland Immunochemicals, Cat.#610-132-121) and for tubulin expression was IRDye 800 goat anti-mouse IgG (InVitrogen Cat. # A21076). Protein quantification was preformed using infrared dye labeled secondary antibodies followed by blot scan using the Licor® Odyssey® scanner.

[5] = biological target: T1, SIRT1; assay: Effect of compounds on the Km of SIRT1 for Acetylated Peptide Substrate (mass spectrometry); assay type: biochemical; conditions: vs DMSO Km
[6] = biological target: T2, Sirt2 (Homo sapiens, UniProt Q8IXJ6); conditions: Sirt2, Fluorescent; read-out: Peptide Km; cited from earlier work
T2 sequence (Q8IXJ6 1-389): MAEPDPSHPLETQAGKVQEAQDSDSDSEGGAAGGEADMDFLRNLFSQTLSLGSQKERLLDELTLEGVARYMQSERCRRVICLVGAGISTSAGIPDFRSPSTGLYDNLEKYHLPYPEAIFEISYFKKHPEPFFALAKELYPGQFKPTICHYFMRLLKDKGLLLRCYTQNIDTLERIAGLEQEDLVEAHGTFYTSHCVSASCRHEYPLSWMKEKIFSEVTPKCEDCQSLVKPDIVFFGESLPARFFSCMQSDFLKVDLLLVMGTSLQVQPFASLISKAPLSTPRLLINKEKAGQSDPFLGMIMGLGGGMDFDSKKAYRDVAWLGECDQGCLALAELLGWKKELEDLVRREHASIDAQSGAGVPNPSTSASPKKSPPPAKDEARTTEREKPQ

[7] = biological target: T3, Sirt3 (Homo sapiens, UniProt Q9NTG7); conditions: Sirt3, Fluorescent; read-out: Peptide Km; cited from earlier work
T3 sequence (Q9NTG7 1-399): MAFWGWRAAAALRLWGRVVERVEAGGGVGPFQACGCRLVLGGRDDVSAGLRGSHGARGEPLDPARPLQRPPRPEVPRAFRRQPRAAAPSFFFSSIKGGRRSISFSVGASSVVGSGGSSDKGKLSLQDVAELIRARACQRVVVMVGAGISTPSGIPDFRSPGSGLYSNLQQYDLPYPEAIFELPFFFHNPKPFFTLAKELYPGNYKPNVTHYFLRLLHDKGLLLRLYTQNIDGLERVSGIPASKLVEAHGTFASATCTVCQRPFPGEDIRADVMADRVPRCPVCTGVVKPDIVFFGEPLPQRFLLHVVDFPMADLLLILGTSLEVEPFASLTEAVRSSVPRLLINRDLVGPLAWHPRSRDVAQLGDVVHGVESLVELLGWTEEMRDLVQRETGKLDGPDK

[8] = biological target: T1, SIRT1; conditions: Sirt1, Fluorescent; read-out: Peptide Km; cited from earlier work

Compound: C[S+](C)[O-] [DMSO]
decrease of SIRT1 enzyme activity ([1]; 0.625% DMSO): 9.1% | decrease of SIRT1 enzyme activity ([1]; 1.25% DMSO): 21% | decrease of SIRT1 enzyme activity ([1]; 2.5% DMSO): 36%

Compound: O=C(NNc1c2ccccc2nc2ccccc12)c1cccnc1 [compound 11]
EC50 ([2]; Homo sapiens, NCI-H358): < 50 µM

FOLD ACTIVATION MS ([3]; activation of SIRT1, mass spectrometry): B (Fold Activation<250%) | EC50 ([3]; activation of SIRT1, 0.5 μM peptide substrate (SEQ ID NO: 34), 120 μM NAD+, 10 nM SIRT1, 25 min, read-out: ED50 MS ASSAY): < 50 µM
Compound: Cc1nc(-c2cccc(Nc3nc4ccccc4s3)c2)cs1 [compound 94]
EC50 ([2]; Homo sapiens, NCI-H358): > 150 µM

Compound: COc1cccc(OC)c1C(=O)Nc1cccc(-c2nc3ccccc3s2)c1 [compound 120]
EC50 [2]: < 50 µM

decrease of Km for peptide substrate ([5]; 1.2 μM resveratrol): 2% | decrease of Km for peptide substrate ([5]; 3.7 μM resveratrol): 14% | decrease of Km for peptide substrate ([5]; 11 μM resveratrol): 14% | decrease of Km for peptide substrate ([5]; 33 μM resveratrol): 32% | decrease of Km for peptide substrate ([5]; 100 μM resveratrol): 46%
Compound: Oc1ccc(C=Cc2cc(O)cc(O)c2)cc1 [resveratrol]
levels of mitochondrial mass biomarkers [4]: increases in the levels of mitochondrial mass biomarkers

Compound: p53 (aa 317-320) *FL (QPKK; also: fluorescent label; UniProt P04637 317-320, looked up, fragment)
Km [6]: 186 µM | Km [7]: 32 µM

Compound: p53 (aa 379-382) *FL (RHKK(Ac); not fully specified (C-terminus); printed as Arg-His-Lys-Lys; also: fluorescent label; UniProt P04637 379-382, looked up, fragment)
Km [8]: 64 µM
